The target in this assay is T1, G protein-coupled receptor 119 (GPR-119) (Mesocricetus auratus, UniProt A0A1U8CD06).
T1 construct: hamster-derived β-cells containing G protein-coupled receptor 119 (GPR-119), HIT-T15 cells; host or cells: HIT-T15 (hamster pancreatic β-cells)
T1 sequence (A0A1U8CD06 1-334): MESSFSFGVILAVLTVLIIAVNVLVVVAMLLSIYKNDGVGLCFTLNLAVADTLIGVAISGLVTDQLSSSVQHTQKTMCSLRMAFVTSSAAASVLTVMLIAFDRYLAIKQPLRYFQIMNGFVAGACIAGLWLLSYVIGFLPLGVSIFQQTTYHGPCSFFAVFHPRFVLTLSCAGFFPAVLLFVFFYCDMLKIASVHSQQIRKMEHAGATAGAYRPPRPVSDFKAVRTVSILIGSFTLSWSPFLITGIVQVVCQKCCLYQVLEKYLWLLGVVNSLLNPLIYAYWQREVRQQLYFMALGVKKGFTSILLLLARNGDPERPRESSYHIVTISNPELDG
The experiment in a line: cAMP activity in HIT-T15 cells (cAMP dynamic kit, FRET). In kind it is cell-based, hamster. In short, it runs like this: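 Hamster HIT-T15 cells (60,000/well) were treated next day with compound at six concentrations, 0.0032–10 μM, for 1 h at 37° C. Cells were then lysed and cAMP measured by competitive HTRF immunoassay (D2-cAMP, cryptate anti-cAMP). Activity was derived as the change in FRET signal relative to DMSO.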

Setting [1] is: 1 hour at 37° C., six concentrations 0.0032 to 10 μM, read-out: EC50.

Read-outs that look alike come from different tables or passages of the source.

Broadly, the EC50 is the concentration that produces a half-maximal response.

As to `CN(CCO)C(=O)C1CC=C(c2ccc(OCC3CCN(C(=O)OC(C)(C)C)CC3)cn2)CC1` (stereo not shown) [Example 341, tert-butyl 4-((6-(4-((2-hydroxyethyl)(methyl)carbamoyl)cyclohex-1-enyl)pyridin-3-yloxy)methyl)piperidine-1-carboxylate], the EC50 under setting [1] turned out to be 180 nM.
Same read-out and setting: the figure for `CCc1cnc(N2CCC(COc3ccc(C4=CCC(C(=O)N5CCOCC5)CC4)cc3C#N)CC2)nc1` (stereo not shown) [Example 388, 2-((1-(5-ethylpyrimidin-2-yl)piperidin-4-yl)methoxy)-5-(4-(morpholine-4-carbonyl)cyclohex-1-enyl)benzonitrile] is 51 nM; for `O=C(Oc1ccc([N+](=O)[O-])cc1)N1CCC(COc2ccc(C3=CCC(C(=O)N4CCCC4)CC3)cc2F)CC1` (stereo not shown) [Example 404, 4-nitrophenyl 4-((2-fluoro-4-(4-(pyrrolidine-1-carbonyl)cyclohex-1-enyl)phenoxy)methyl)piperidine-1-carboxylate] it is 55 nM; for `CC(C)c1noc(N2CCC(COc3ccc(C4=CCC(C(=O)N5CCN(C6CC6)CC5)CC4)cc3F)CC2)n1` (stereo not shown) [Example 369, (4-cyclopropylpiperazin-1-yl)(4-(3-fluoro-4-((1-(3-isopropyl-1,2,4-oxadiazol-5-yl)piperidin-4-yl)methoxy)phenyl)cyclohex-3-enyl)methanone] it is 9 nM.
In the case of `CCc1cnc(N2CCC(COc3ccc(C4=CCC(C(=O)N5CCN(CCO)CC5)CC4)cc3)CC2)nc1` (stereo not shown) [Example 172, (4-(4-((1-(5-ethylpyrimidin-2-yl)piperidin-4-yl)methoxy)phenyl)cyclohex-3-enyl)(4-(2-hydroxyethyl)piperazin-1-yl)methanone], the EC50 (Table 2, read-out: EC50 value) is no more than 50 nM.
For `CC(C)c1noc(N2CCC(COc3ccc(C4=CCC(C(=O)N5CCC5)CC4)cc3F)CC2)n1` (stereo not shown) [Example 330, azetidin-1-yl(4-(3-fluoro-4-((1-(3-isopropyl-1,2,4-oxadiazol-5-yl)piperidin-4-yl)methoxy)phenyl)cyclohex-3-enyl)methanone], the EC50 under setting [1] came to 35 nM and the EC50 (Table 2, read-out: EC50 value) is no more than 50 nM.
Turning to `CCc1cnc(N2CCC(COc3ccc(C4=CCC(C(=O)N5CCC(C#N)CC5)CC4)cc3F)CC2)nc1` (stereo not shown) [Example 321, 1-(4-(4-((1-(5-ethylpyrimidin-2-yl)piperidin-4-yl)methoxy)-3-fluorophenyl)cyclohex-3-enecarbonyl)piperidine-4-carbonitrile], the EC50 was 28 nM under setting [1] and no more than 50 nM (Table 2, read-out: EC50 value).
In the same order, the values of `CCc1cnc(N2CCC(COc3ccc(C4=CCC(C(=O)N5CCSCC5)CC4)cc3F)CC2)nc1` (stereo not shown) [Example 300, (4-(4-((1-(5-ethylpyrimidin-2-yl)piperidin-4-yl)methoxy)-3-fluorophenyl)cyclohex-3-enyl)(thiomorpholino)methanone] are 8.5 nM and no more than 50 nM.
With `CC(C)(C)OC(=O)N1CCC(COc2ccc(C3=CCC(C(=O)N4CCC(O)CC4)CC3)nc2)CC1` (stereo not shown) [Example 310, tert-butyl 4-((6-(4-(4-hydroxypiperidine-1-carbonyl)cyclohex-1-enyl)pyridin-3-yloxy)methyl)piperidine-1-carboxylate], the EC50 under setting [1] stood at 33 nM and the EC50 (Table 2, read-out: EC50 value) was no more than 50 nM.
Take `CC1(OC(=O)N2CCC(COc3ccc(C4=CCC(C(=O)N5CCCC5)CC4)cc3F)CC2)CC1` (stereo not shown) [Example 408, 1-methylcyclopropyl 4-((2-fluoro-4-(4-(pyrrolidine-1-carbonyl)cyclohex-1-enyl)phenoxy)methyl)piperidine-1-carboxylate]: the EC50 under setting [1] is 25 nM and the EC50 (Table 2, read-out: EC50 value) is no more than 50 nM.
Turning to `CCc1cnc(N2CCC(COc3ccc(C4=CCC(C(=O)N5CCN(C(=O)C=C(C)C)CC5)CC4)cc3)CC2)nc1` (stereo not shown) [Example 414, 1-(4-(4-(4-((1-(5-ethylpyrimidin-2-yl)piperidin-4-yl)methoxy)phenyl)cyclohex-3-enecarbonyl)piperazin-1-yl)-3-methylbut-2-en-1-one], the EC50 was 27 nM under setting [1] and no more than 50 nM (Table 2, read-out: EC50 value).
In the same order, the values of `CC(C)(C)OC(=O)N1CCC(COc2ccc(C3=CCC(C(=O)N4CCCC4)CC3)cc2F)CC1` (stereo not shown) [Example 392, tert-butyl 4-((2-fluoro-4-(4-(pyrrolidine-1-carbonyl)cyclohex-1-enyl)phenoxy)methyl)piperidine-1-carboxylate] are 10 nM and no more than 50 nM.
Take `CC(C)(C)OC(=O)N1CCC(COc2ccc(C3=CCC(C(=O)N4CCC(=NO)CC4)CC3)nc2)CC1` (stereo not shown) [Example 344, tert-butyl 4-((6-(4-(4-(hydroxyimino)piperidine-1-carbonyl)cyclohex-1-enyl)pyridin-3-yloxy)methyl)piperidine-1-carboxylate]: the EC50 runs as follows: under setting [1], 45 nM; (Table 2, read-out: EC50 value) no more than 50 nM.
For the molecule `CCc1cnc(N2CCC(COc3ccc(C4=CCC(C(=O)N5CCCC5)CC4)cc3C)CC2)nc1` (stereo not shown) [Example 416, (4-(4-((1-(5-ethylpyrimidin-2-yl)piperidin-4-yl)methoxy)-3-methylphenyl)cyclohex-3-enyl)(pyrrolidin-1-yl)methanone], under setting [1], the EC50 stood at 75 nM.
On to `CCc1cnc(N2CCC(COc3ccc(C4=CCC(C(=O)N5CCC(C(N)=O)CC5)CC4)cc3F)CC2)nc1` (stereo not shown) [Example 324, 1-(4-(4-((1-(5-ethylpyrimidin-2-yl)piperidin-4-yl)methoxy)-3-fluorophenyl)cyclohex-3-enecarbonyl)piperidine-4-carboxamide], for which the EC50 is 27 nM under setting [1] and no more than 50 nM (Table 2, read-out: EC50 value).
Take `CCN1CCN(C(=O)C2CC=C(c3ccc(OCC4CCN(C(=O)OC(C)(C)C)CC4)cc3)CC2)CC1` (stereo not shown) [Example 203, tert-butyl 4-((4-(4-(4-ethylpiperazine-1-carbonyl)cyclohex-1-enyl)phenoxy)methyl)piperidine-1-carboxylate]: the EC50 (Table 2, read-out: EC50 value) is no more than 50 nM.
In the case of `CCc1cnc(N2CCC(COc3ccc(C4=CCC(C(=O)N5CCCCC5)CC4)cc3C)CC2)nc1` (stereo not shown) [Example 415, (4-(4-((1-(5-ethylpyrimidin-2-yl)piperidin-4-yl)methoxy)-3-methylphenyl)cyclohex-3-enyl)(piperidin-1-yl)methanone], under setting [1], the EC50 was 55 nM.
As to `O=C(C1CC=C(c2ccc(OCC3CCN(c4nc(C(F)(F)F)no4)CC3)c(F)c2)CC1)N1CCCC1` (stereo not shown) [Example 435, (4-(3-fluoro-4-((1-(3-(trifluoromethyl)-1,2,4-oxadiazol-5-yl)piperidin-4-yl)methoxy)phenyl)cyclohex-3-enyl)(pyrrolidin-1-yl)methanone], the 50% effective concentration (EC50) was 13 nM under setting [1] and no more than 50 nM (Table 2, read-out: EC50 value).
Turning to `CC(C)(C)OC(=O)N1CCC(COc2ccc(C3=CCC(C(=O)N4CCOCC4)CC3)cc2F)CC1` (single isomer, unassigned; (+)) [Example 442, (+)-tert-butyl 4-((2-fluoro-4-(4-(morpholine-4-carbonyl)cyclohex-1-enyl)phenoxy)methyl)piperidine-1-carboxylate], the EC50 under setting [1] is 8 nM and the EC50 (Table 2, read-out: EC50 value) was no more than 50 nM.
On to `CCc1cnc(N2CCC(COc3ccc(C4=CCC(C(=O)N5CCC(N6CCCCC6)CC5)CC4)cc3F)CC2)nc1` (stereo not shown) [Example 297, 1,4′-bipiperidin-1′-yl(4-(4-((1-(5-ethylpyrimidin-2-yl)piperidin-4-yl)methoxy)-3-fluorophenyl)cyclohex-3-enyl)methanone], for which the EC50 under setting [1] was 120 nM.
